Biological target: biotinylated Avi-POLθ[2-894] (Homo sapiens (Human), UniProt O75417)
Test: POLθ ATPase assay (ADP-Glo)
Details: POLθ ATPase, ADP-Glo; n=2; read-out: Biochemical ATPase ADPGlo IC50
Experimental: In some embodiments, the ATPase assay a compound of the present disclosure is combined with biotinylated Avi-POLθ[2-894], a 50 nucleotide poly-thymine repeat single-stranded DNA, and ATP in buffer. In some embodiments, the mixture is incubated and ADP-Glo Reagent added, followed by a subsequent incubation. In some embodiments, a Kinase Detection Reagent may be added, followed by a third incubation. In some embodiments, the activity is measured via luminescence signal (e.g., measured with the EnVision multimode plate reader). POLθ-mediated ATP hydrolysis was measured using the ADP-Glo Kinase Assay (Promega Corporation, Madison, WI). Reactions were performed in white 384-well small-volume microplates (Greiner Bio-One, Frickenhausen, Germany) using a total volume of 15 μL. The ATPase reaction consisted of 1 nM biotinylated Avi-POLθ[2-894], 5 nM of a 50 nucleotide poly-thymine repeat single-stranded DNA (PolyT(50) ssDNA), and 100 μM ATP in 5 μL of assay buffer (50 mM Tris, pH 7.5, 80 mM KCl, 10 MgCl2, 1 mM DTT, 5% glycerol, 0.01% BSA, 0.01% Tween-20). Inhibition of POLΘATPase activity was determined by preparing 11-point serial dilutions of the test compounds in 100% DMSO, then transferring 30 nL of the compounds into the ATPase reaction using an Echo acoustic liquid handler (Beckman Coulter, Brea, CA). DMSO-treated wells containing either all of the reaction components (1 nM biotinylated Avi-POLθ[2-894], 5 nM PolyT(50) ssDNA, 100 μM ATP) or with assay buffer substituted for the biotinylated Avi-POLθ[2-894](0 nM biotinylated Avi-POLθ[2-894], 5 nM PolyT(50) ssDNA, 100 μM ATP) were used to define the maximum and minimum response in the assay. Following a one-hour incubation at ambient temperature, 5 μL of ADP-Glo Reagent was added to the ATPase reaction, and this mixture was allowed to incubate at ambient temperature for an additional hour. Lastly, 5 μL of Kinase Detection Reagent was added, followed by a third one-hour incubation at ambient temperature. […] Luminescence signal was measured using the EnVision multimode plate reader (Perkin Elmer. Waltham. MA). […] Non-linear regression analysis using the four-parameter logistic equation was conducted on the percent activity values of the compound dose-responses, yielding the AC50 value for each compound. Genedata Screener (Genedata. Basel, Switzerland) was used for the data analysis.

biotinylated Avi-POLθ[2-894], sequence (O75417 2-894): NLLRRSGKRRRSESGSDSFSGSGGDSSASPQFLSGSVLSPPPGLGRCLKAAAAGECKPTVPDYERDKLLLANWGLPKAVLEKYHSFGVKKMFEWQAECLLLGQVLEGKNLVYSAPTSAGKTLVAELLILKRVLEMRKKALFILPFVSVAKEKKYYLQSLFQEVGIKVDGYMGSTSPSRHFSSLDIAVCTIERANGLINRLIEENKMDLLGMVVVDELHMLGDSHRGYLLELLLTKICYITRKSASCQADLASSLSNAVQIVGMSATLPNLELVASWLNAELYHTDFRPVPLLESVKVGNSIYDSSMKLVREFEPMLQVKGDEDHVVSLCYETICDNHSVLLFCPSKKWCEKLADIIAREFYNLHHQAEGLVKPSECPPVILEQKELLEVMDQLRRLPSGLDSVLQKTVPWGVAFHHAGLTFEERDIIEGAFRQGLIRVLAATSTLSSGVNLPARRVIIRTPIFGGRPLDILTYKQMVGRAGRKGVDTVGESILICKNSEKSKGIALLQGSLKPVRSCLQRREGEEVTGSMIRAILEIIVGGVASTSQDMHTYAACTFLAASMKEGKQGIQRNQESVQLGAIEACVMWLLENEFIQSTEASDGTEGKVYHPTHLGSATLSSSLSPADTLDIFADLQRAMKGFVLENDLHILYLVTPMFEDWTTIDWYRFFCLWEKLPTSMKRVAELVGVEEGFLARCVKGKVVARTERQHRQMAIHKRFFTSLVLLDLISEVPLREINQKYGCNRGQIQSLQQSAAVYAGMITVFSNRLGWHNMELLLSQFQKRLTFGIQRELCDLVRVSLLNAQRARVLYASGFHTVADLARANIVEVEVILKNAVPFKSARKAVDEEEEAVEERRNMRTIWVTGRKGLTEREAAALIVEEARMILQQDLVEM

SMILES | IC50
COc1cnc(Cl)cc1-c1cc(C)ncc1C(=O)Nc1nc2c(s1)C[C@@H](C(=O)N[C@H]1CC[C@H]1O)CC2 | 150 to 900 nM
COc1cnc(Cl)cc1-c1cc(C)ncc1C(=O)Nc1nc2c(s1)C[C@H](C(=O)N[C@H]1CC[C@H]1O)CC2 | 150 to 900 nM
COc1cnc(Cl)cc1-c1cc(C)ncc1C(=O)Nc1nc2c(s1)C[C@@H](C(=O)N[C@H]1CC[C@@H]1O)CC2 | 150 to 900 nM
COc1cnc(Cl)cc1-c1cc(C)ncc1C(=O)Nc1nc2c(s1)C[C@H](C(=O)N[C@H]1CC[C@@H]1O)CC2 | 150 to 900 nM
COc1cnc(Cl)cc1-c1cc(C)ncc1C(=O)Nc1nc2c(s1)C[C@H](C(=O)N[C@@H]1CC[C@@H]1O)CC2 | 150 to 900 nM

More lines, now with the values ahead:

IC50 | SMILES
1 to 15 nM | COc1cnc(Cl)cc1-c1cc(C)ncc1C(=O)Nc1nc2c(s1)CN(C(=O)c1ccc(Cl)c(C(F)F)c1)C2
1 to 15 nM | COc1ccc(C#N)cc1-c1cc(C)ncc1C(=O)Nc1nc2c(s1)CN(C(=O)c1ccc(F)c(C(F)F)c1)C2
1 to 15 nM | COc1cnc(Cl)cc1-c1cc(C)ncc1C(=O)Nc1nc2c(s1)CN(C(=O)c1cccc3cncn13)C2
1 to 15 nM | COc1cnc(C(=O)N2Cc3nc(NC(=O)c4cnc(C)cc4-c4cc(Cl)ncc4OC)sc3C2)nc1
1 to 15 nM | COc1cnc(Cl)cc1-c1cc(C)ncc1C(=O)Nc1nc2c(s1)CN(C(=O)c1nccs1)C2
1 to 15 nM | COc1ccc(C#N)cc1-c1cc(C)ncc1C(=O)Nc1nc2c(s1)CN(C(=O)c1ccc(Cl)c(C(F)F)c1)C2
1 to 15 nM | COc1cnc(Cl)cc1-c1cc(C)ncc1C(=O)Nc1nc2c(s1)CN(C(=O)c1ccncn1)C2
1 to 15 nM | COc1cnc(Cl)cc1-c1cc(C)ncc1C(=O)Nc1nc2c(s1)CN(C(=O)c1cccc(OC(F)(F)F)n1)C2
1 to 15 nM | COc1cnc(Cl)cc1-c1cc(C)ncc1C(=O)Nc1nc2c(s1)CN(C(=O)c1cncc(C(F)(F)F)n1)C2
1 to 15 nM | COc1cnc(Cl)cc1-c1cc(C)ncc1C(=O)Nc1nc2c(s1)CN(C(=O)c1cnc(OC(F)F)cn1)C2
1 to 15 nM | COc1cnc(Cl)cc1-c1cc(C)ncc1C(=O)Nc1nc2c(s1)CN(C(=O)c1ncncc1Cl)C2
1 to 15 nM | COc1cc(Cl)c(C(=O)N2Cc3nc(NC(=O)c4cnc(C)cc4-c4cc(Cl)ncc4OC)sc3C2)nn1
1 to 15 nM | COc1cnc(Cl)cc1-c1cc(C)ncc1C(=O)Nc1nc2c(s1)CN(C(=O)c1cncc(C)n1)C2
1 to 15 nM | COc1cnc(Cl)cc1-c1cc(C)ncc1C(=O)Nc1nc2c(s1)CN(C(=O)c1nc(C(F)(F)F)co1)C2
1 to 15 nM | COc1cnc(Cl)cc1-c1cc(C)ncc1C(=O)Nc1nc2c(s1)CN(C(=O)c1ncc(C)nc1C)C2
1 to 15 nM | COc1cnc(Cl)cc1-c1cc(C)ncc1C(=O)Nc1nc2c(s1)CN(C(=O)c1ncc(C)n1C)C2
15 to 50 nM | COc1cnnc(C(=O)N2Cc3nc(NC(=O)c4cnc(C)cc4-c4cc(Cl)ncc4OC)sc3C2)c1
150 to 900 nM | COc1cnc(Cl)cc1-c1cc(C)ncc1C(=O)Nc1nc2c(s1)CN(C(=O)C1CCCC(OC(F)F)C1)C2 (stereo not shown)
50 to 150 nM | COc1cnc(Cl)cc1-c1cc(C)ncc1C(=O)Nc1nc2c(s1)C[C@H](C(=O)N1CC(O)C1)CC2

Same assay, conditions: n=2; read-out: Biochemical ATPase ADPGlo IC50

SMILES | IC50
COc1ccc(C#N)cc1-c1cc(C)ncc1C(=O)Nc1nc2c(s1)CN(S(=O)(=O)N1CCC1)C2 | 1 to 15 nM
COc1ccc(C#N)cc1-c1cc(C)ncc1C(=O)Nc1nc2c(s1)CN(C(=O)[C@@H]1CC[C@@H]1C)C2 | 15 to 50 nM
COc1ccc(C#N)cc1-c1cc(C)ncc1C(=O)Nc1nc2c(s1)CN(C(=O)[C@@H]1CC[C@H]1C)C2 | 1 to 15 nM
COc1ccc(C#N)cc1-c1cc(C)ncc1C(=O)Nc1nc2c(s1)CN(S(=O)(=O)N1CCCC1)CC2 | 50 to 150 nM
COc1ccc(C#N)cc1-c1cc(C)ncc1C(=O)Nc1nc2c(s1)CN(S(=O)(=O)c1ccc(C)cn1)C2 | 1 to 15 nM
COc1ccc(C#N)cc1-c1cc(C)ncc1C(=O)Nc1nc2c(s1)CN(S(=O)(=O)C1CCOC1)C2 (stereo not shown) | 15 to 50 nM
COc1ccc(C#N)cc1-c1cc(C)ncc1C(=O)Nc1nc2c(s1)CN(S(=O)(=O)C1CCCC1)CC2 | 150 to 900 nM
CCNS(=O)(=O)N1CCc2nc(NC(=O)c3cnc(C)cc3-c3cc(C#N)ccc3OC)sc2C1 | 50 to 150 nM
COc1ccc(C#N)cc1-c1cc(C)ncc1C(=O)Nc1nc2c(s1)CN(S(=O)(=O)C1(C)CC1)C2 | 15 to 50 nM
COc1ccc(C#N)cc1-c1cc(C)ncc1C(=O)Nc1nc2c(s1)CN(C(=O)C1CCC1)C2 | 1 to 15 nM
COc1ccc(C#N)cc1-c1cc(C)ncc1C(=O)Nc1nc2c(s1)CN(S(=O)(=O)C1CCC1)C2 | 50 to 150 nM
COc1ccccc1-c1cc(C)ncc1C(=O)Nc1nc2c(s1)CN(S(=O)(=O)C1CCC1)C2 | 15 to 50 nM
COc1ccc(C#N)cc1-c1cc(C)ncc1C(=O)Nc1nc2c(s1)CN(S(=O)(=O)c1cccnc1)C2 | 50 to 150 nM
COc1ccccc1-c1cc(C)ncc1C(=O)Nc1nc2c(s1)CN(c1nccs1)C2 | ≥ 900 nM
COc1ccccc1-c1cc(C)ncc1C(=O)Nc1nc2c(s1)CN(S(=O)(=O)NCC(C)C)C2 | 50 to 150 nM
COc1ccc(C#N)cc1-c1cc(C)ncc1C(=O)Nc1nc2c(s1)CN(S(=O)(=O)C1CCOCC1)C2 | 50 to 150 nM
CCNS(=O)(=O)N1Cc2nc(NC(=O)c3cnc(C)cc3-c3ccccc3OC)sc2C1 | 15 to 50 nM
COc1ccccc1-c1cc(C)ncc1C(=O)Nc1nc2c(s1)CN(S(=O)(=O)N1CCOCC1)C2 | 15 to 50 nM

SMILES | IC50
COc1ccccc1-c1cc(C)ncc1C(=O)Nc1nc2c(s1)CN(S(=O)(=O)N1CCCC1)C2 | 50 to 150 nM
COc1ccccc1-c1cc(C)ncc1C(=O)Nc1nc2c(s1)CC(Nc1ccccc1)CC2 (stereo not shown) [listing 1 of 3 here] | 50 to 150 nM
CNS(=O)(=O)N1Cc2nc(NC(=O)c3cnc(C)cc3-c3ccccc3OC)sc2C1 | 50 to 150 nM
COc1ccccc1-c1cc(C)ncc1C(=O)Nc1nc2c(s1)CC(Nc1ccccc1)CC2 (stereo not shown) [listing 2 of 3 here] | 50 to 150 nM
COc1ccccc1-c1cc(C)ncc1C(=O)Nc1nc2c(s1)CC(c1ccc(Cl)cc1)CC2 (stereo not shown) [listing 1 of 2 here] | 50 to 150 nM
COc1ccccc1-c1cc(C)ncc1C(=O)Nc1nc2c(s1)CN(S(=O)(=O)N(C)C)C2 | 150 to 900 nM
COc1ccccc1-c1cc(C)ncc1C(=O)Nc1nc2c(s1)CC(c1ccc(Cl)cc1)CC2 (stereo not shown) [listing 2 of 2 here] | 150 to 900 nM
COc1ccccc1-c1cc(C)ncc1C(=O)Nc1nc2c(s1)CN(C(=O)N(C)C)C2 | ≥ 900 nM
COc1ccccc1-c1cc(C)ncc1C(=O)Nc1nc2c(s1)CC(Oc1ccccc1)CC2 (stereo not shown) | ≥ 900 nM
COc1ccccc1-c1cc(C)ncc1C(=O)Nc1nc2c(s1)CN(C(=O)C1(C#N)CC1)C2 | ≥ 900 nM
COc1ccccc1-c1cc(C)ncc1C(=O)Nc1nc2c(s1)C(=O)N(C1CC1)C2 | ≥ 900 nM
COc1ccccc1-c1cc(C)ncc1C(=O)Nc1nc2c(s1)CCCC2 | ≥ 900 nM
COc1ccccc1-c1cc(C)ncc1C(=O)Nc1nc2c(s1)CN(C(=O)C1CCCCC1)CC2 | ≥ 900 nM
COc1ccccc1-c1cc(C)ncc1C(=O)Nc1nc2c(s1)CC(Nc1ccccc1)CC2 (stereo not shown) [listing 3 of 3 here] | ≥ 900 nM
COc1ccccc1-c1cc(C)ncc1C(=O)Nc1nc2c(s1)CNC2 | ≥ 900 nM
COc1ccccc1-c1cc(C)ncc1C(=O)Nc1nc2c(s1)CN(C1CCCCC1)CC2 | ≥ 900 nM
COc1ccccc1-c1cc(C)ncc1C(=O)Nc1nc2c(s1)COCC2 | ≥ 900 nM
COc1ccccc1-c1cc(C)ncc1C(=O)Nc1nc2c(s1)CCN(C(=O)OC(C)(C)C)C2 | ≥ 900 nM

Next, values leading:

IC50 | SMILES
1 to 15 nM | COc1cnc(Cl)cc1-c1cc(C)ncc1C(=O)Nc1nc2c(s1)CN(C(=O)N1CC(OC(F)F)C1)C2
150 to 900 nM | COc1ccc(C#N)cc1-c1cc(C)ncc1C(=O)Nc1nc2c(s1)CN(C(=O)c1cccnc1)CC2
150 to 900 nM | COC(=O)N1Cc2nc(NC(=O)c3cnc(C)cc3-c3ccccc3OC)sc2C1
≥ 900 nM | CNC(=O)N1Cc2nc(NC(=O)c3cnc(C)cc3-c3ccccc3OC)sc2C1

From patent publication US20250230171A1 (MOMA Therapeutics, Inc., priority 2023, published 2025)
